The text below walks through data of patent US20260042755A1, “GPR6 INVERSE AGONISTS” (MapLight Therapeutics, Inc., priority 2022, published 2026).

Where only a bound is given, the exact number is not on record here.

One experiment concerns the target T1, GPR6 (Homo sapiens, UniProt P46095).
T1 construct: expressed in transfected cells; host or cells: CHO cells
The experiment is described as follows: GPR6 antagonist functional cAMP assay (LANCE Ultra cAMP TR-FRET, CHO cells stably expressing GPR6). It counts as cell-based. In a few lines:
(§1)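 Suspended cells were plated at 10,000 per well in Krebs-Ringer bicarbonate buffer containing 0.1% BSA and 150 μM Ro 20-1724, then treated with compounds for 45 min at 37 °C. Intracellular cAMP was then quantified by TR-FRET immunoassay.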
For orientation: Cyclic AMP is a second messenger, typically raised through Gs and lowered through Gi signalling.

The next experiment has as its target T2, GPR3 (Homo sapiens, UniProt P46089).
T2 construct: expressed in transfected cells; host or cells: CHO cells
The experiment is described as follows: GPR3 antagonist functional cAMP assay (LANCE Ultra cAMP TR-FRET, CHO cells stably expressing GPR3). The class given is cell-based. In outline: as §1

[1] abbreviates: CHO cells stably expressing GPR6, cAMP assay (Example 24).
Setting [2] is: CHO cells stably expressing GPR3, cAMP assay (Example 24).

T2 sequence (P46089 whole entry, species assumed): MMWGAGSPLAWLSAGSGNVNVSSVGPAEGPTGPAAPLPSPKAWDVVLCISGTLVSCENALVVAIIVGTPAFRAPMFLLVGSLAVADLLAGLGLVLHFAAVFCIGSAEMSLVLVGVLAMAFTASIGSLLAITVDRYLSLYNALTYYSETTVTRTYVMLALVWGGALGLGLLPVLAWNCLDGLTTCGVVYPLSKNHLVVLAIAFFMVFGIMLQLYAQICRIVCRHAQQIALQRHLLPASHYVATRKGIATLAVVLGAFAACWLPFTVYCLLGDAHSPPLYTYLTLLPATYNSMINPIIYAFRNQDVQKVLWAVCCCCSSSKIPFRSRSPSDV
T1 sequence (P46095 whole entry): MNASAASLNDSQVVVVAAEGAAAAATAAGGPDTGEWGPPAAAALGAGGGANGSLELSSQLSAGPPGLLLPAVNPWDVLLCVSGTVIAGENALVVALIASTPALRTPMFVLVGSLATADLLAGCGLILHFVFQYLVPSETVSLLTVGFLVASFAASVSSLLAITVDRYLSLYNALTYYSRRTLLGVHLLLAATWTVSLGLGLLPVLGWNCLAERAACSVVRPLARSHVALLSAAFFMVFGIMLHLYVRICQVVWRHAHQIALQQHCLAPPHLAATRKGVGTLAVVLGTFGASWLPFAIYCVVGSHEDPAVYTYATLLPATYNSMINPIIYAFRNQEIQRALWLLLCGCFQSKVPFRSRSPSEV

Regarding `COC1CCC(c2nc3c(nc2N2CCC(Oc4ccc(F)cc4F)CC2)CCN(C(C)=O)C3)CC1` (stereo not shown) [Compound 373, 1-(2-(4-(2,4-difluorophenoxy)piperidin-1-yl)-3-(4-methoxycyclohexyl)-7,8-dihydropyrido[3,4-b]pyrazin-6(5H)-yl)ethan-1-one], the values for the IC50 against GPR6 (procedure of Example 24) and against GPR3 (procedure of Example 24) were 100 to 1000 nM and 1000 to 30000 nM, respectively.

Take `CC(=O)N1CCc2nc(N3CCC(Oc4ccc(F)cc4F)CC3)c(C3CCC(O)CC3)nc2C1` (stereo not shown) [Compound 374, 1-(2-(4-(2,4-difluorophenoxy)piperidin-1-yl)-3-(4-hydroxycyclohexyl)-7,8-dihydropyrido[3,4-b]pyrazin-6(5H)-yl)ethan-1-one]: the IC50 on GPR6 (procedure of Example 24) and against GPR3 (procedure of Example 24) was 1000 to 30000 nM in each case.

As to `CC(=O)N1CCc2nc(N3CCC(Cc4ccc(F)cc4F)CC3)c(-c3cnn(C)c3)nc2C1` [Compound 375, 1-(2-{4-[(2,4-difluorophenyl)methyl]piperidin-1-yl}-3-(1-methyl-1H-pyrazol-4-yl)-5H,6H,7H,8H-pyrido[3,4-b]pyrazin-6-yl)ethan-1-one], the IC50 – broadly, the point on the concentration scale where inhibition reaches its midpoint – is less than 100 nM against GPR6 (procedure of Example 24) and 100 to 1000 nM against GPR3 (procedure of Example 24).

As for `Cn1cc(-c2nc3c(O)nccc3nc2N2CCC(Oc3ccc(F)cc3F)CC2)cn1` [Compound 376, 2-[4-(2,4-difluorophenoxy)piperidin-1-yl]-3-(1-methyl-1H-pyrazol-4-yl)pyrido[3,4-b]pyrazin-5-ol], the IC50 at GPR6 (procedure of Example 24) and against GPR3 (procedure of Example 24) was 1000 to 30000 nM in each case.

On to `Cn1cc(-c2nc3cnc(CC(O)CO)cc3nc2N2CCC(Oc3ccc(F)cc3F)CC2)cn1` (stereo not shown) [Compound 377, 3-(2-(4-(2,4-difluorophenoxy)piperidin-1-yl)-3-(1-methyl-1H-pyrazol-4-yl)pyrido[3,4-b]pyrazin-7-yl)propane-1,2-diol], for which the results for the IC50 against GPR6 (setting [1]) and against GPR3 (setting [2]) were 100 to 1000 nM and 1000 to 30000 nM, respectively.

In the case of `COCCNc1cc2nc(N3CCC(Oc4ccc(F)cc4F)CC3)c(-c3cnn(C)c3)nc2cn1` [Compound 380, 2-[4-(2,4-difluorophenoxy)piperidin-1-yl]-N-(2-methoxyethyl)-3-(1-methyl-1H-pyrazol-4-yl)pyrido[3,4-b]pyrazin-7-amine], the values for the half-inhibitory concentration (IC50) against GPR6 (setting [1]) and against GPR3 (setting [2]) were 100 to 1000 nM and 1000 to 30000 nM, respectively.

For the compound `COCCOc1cc2nc(N3CCC(Oc4ccc(F)cc4F)CC3)c(-c3cnn(C)c3)nc2cn1` [Compound 381, 4-(2,4-difluorophenoxy)-1-[7-(2-methoxyethoxy)-3-(1-methyl-1H-pyrazol-4-yl)pyrido[3,4-b]pyrazin-2-yl]piperidine], the results for the IC50 against GPR6 (setting [1]) and on GPR3 (setting [2]) were 100 to 1000 nM and 1000 to 30000 nM, respectively.

`Cn1cc(-c2nc3cnc(OC4COC4)cc3nc2N2CCC(Oc3ccc(F)cc3F)CC2)cn1` [Compound 382, 4-(2,4-difluorophenoxy)-1-[3-(1-methyl-1H-pyrazol-4-yl)-7-(oxetan-3-yloxy)pyrido[3,4-b]pyrazin-2-yl]piperidine]: the IC50 at GPR6 (setting [1]) was in the range of 100 to 1000 nM; on GPR3 (setting [2]), 1000 to 30000 nM.

For the compound `CC(=O)N1CCc2nc(N3CCC(Oc4cccc(F)c4)C3)c(-c3cnn(C)c3)nc2C1` (stereo not shown) [Compound 383, 1-{2-[3-(3-fluorophenoxy)pyrrolidin-1-yl]-3-(1-methyl-1H-pyrazol-4-yl)-5H,6H,7H,8H-pyrido[3,4-b]pyrazin-6-yl}ethan-1-one], the IC50 at GPR6 (setting [1]) and on GPR3 (setting [2]) was 1000 to 30000 nM throughout.

With `CC(=O)N1CCc2nc(N3CCN(Cc4ccc(C(F)(F)F)cc4)CC3)c(-c3cnn(C)c3)nc2C1` [Compound 384, 1-[3-(1-methyl-1H-pyrazol-4-yl)-2-(4-{[4-(trifluoromethyl)phenyl]methyl}piperazin-1-yl)-5H,6H,7H,8H-pyrido[3,4-b]pyrazin-6-yl]ethan-1-one], the concentration for half-maximal inhibition (IC50) against GPR6 (setting [1]) and on GPR3 (setting [2]) was 1000 to 30000 nM throughout.

On to `CC(=O)N1CCc2nc(N3CCC(C(=O)N(C)c4ccc(F)cc4)C3)c(-c3cnn(C)c3)nc2C1` (stereo not shown) [Compound 385, 1-[6-acetyl-3-(1-methyl-1H-pyrazol-4-yl)-5H,6H,7H,8H-pyrido[3,4-b]pyrazin-2-yl]-N-(4-fluorophenyl)-N-methylpyrrolidine-3-carboxamide], for which the half-inhibitory concentration (IC50) is no less than 30000 nM against GPR6 (setting [1]) and 1000 to 30000 nM against GPR3 (setting [2]).

With `CC(=O)N1CCc2nc(N3CCC(C(=O)NCc4ccc(F)cc4F)C3)c(-c3cnn(C)c3)nc2C1` (stereo not shown) [Compound 386, 1-[6-acetyl-3-(1-methyl-1H-pyrazol-4-yl)-5H,6H,7H,8H-pyrido[3,4-b]pyrazin-2-yl]-N-[(2,4-difluorophenyl)methyl] pyrrolidine-3-carboxamide], the figures for the IC50 on GPR6 (setting [1]) and against GPR3 (setting [2]) were no less than 30000 nM and 1000 to 30000 nM, respectively.

Turning to `CC(=O)N1CCc2nc(N3CCC(C(=O)N(C)Cc4ccc(F)cc4F)C3)c(-c3cnn(C)c3)nc2C1` (stereo not shown) [Compound 387, 1-[6-acetyl-3-(1-methyl-1H-pyrazol-4-yl)-5H,6H,7H,8H-pyrido[3,4-b]pyrazin-2-yl]-N-[(2,4-difluorophenyl)methyl]-N-methylpyrrolidine-3-carboxamide], the IC50 against GPR6 (setting [1]) and at GPR3 (setting [2]) was 1000 to 30000 nM in each case.

In the case of `CC(=O)N1CCc2nc(N3CCC(C(=O)N(C)C)C3)c(-c3cnn(C)c3)nc2C1` (stereo not shown) [Compound 388, 1-[6-acetyl-3-(1-methyl-1H-pyrazol-4-yl)-5H,6H,7H,8H-pyrido[3,4-b]pyrazin-2-yl]-N,N-dimethylpyrrolidine-3-carboxamide], the values for the IC50 at GPR6 (setting [1]) and on GPR3 (setting [2]) were no less than 30000 nM and 100 to 1000 nM, respectively.

As to `CC(=O)N1CCc2nc(N3CCC(C(=O)N4CCOCC4)C3)c(-c3cnn(C)c3)nc2C1` (stereo not shown) [Compound 389, 1-[3-(1-methyl-1H-pyrazol-4-yl)-2-[3-(morpholine-4-carbonyl)pyrrolidin-1-yl]-5H,6H,7H,8H-pyrido[3,4-b]pyrazin-6-yl]ethan-1-one], the IC50 against GPR6 (setting [1]) was no less than 30000 nM; on GPR3 (setting [2]) it was 1000 to 30000 nM.

For `CC(=O)N1CCc2nc(N3CCC(C(=O)N4CCN(C)C(=O)C4)C3)c(-c3cnn(C)c3)nc2C1` (stereo not shown) [Compound 390, 4-{1-[6-acetyl-3-(1-methyl-1H-pyrazol-4-yl)-5H,6H,7H,8H-pyrido[3,4-b]pyrazin-2-yl]pyrrolidine-3-carbonyl}-1-methylpiperazin-2-one], the IC50 against GPR6 (setting [1]) and against GPR3 (setting [2]) was 1000 to 30000 nM each time.

Take `CC(=O)N1CCc2nc(N3CCC(C(=O)Nc4ccc(F)cc4)C3)c(-c3cnn(C)c3)nc2C1` (stereo not shown) [Compound 391, 1-[6-acetyl-3-(1-methyl-1H-pyrazol-4-yl)-5H,6H,7H,8H-pyrido[3,4-b]pyrazin-2-yl]-N-(4-fluorophenyl)pyrrolidine-3-carboxamide]: the IC50 against GPR6 (setting [1]) was no less than 30000 nM; against GPR3 (setting [2]) it was 1000 to 30000 nM.

As for `CC(=O)N1CCc2nc(N3CCC(C(=O)N(C)c4ccc(F)cc4F)C3)c(-c3cnn(C)c3)nc2C1` (stereo not shown) [Compound 392, 1-[6-acetyl-3-(1-methyl-1H-pyrazol-4-yl)-5H,6H,7H,8H-pyrido[3,4-b]pyrazin-2-yl]-N-(2,4-difluorophenyl)-N-methylpyrrolidine-3-carboxamide], the IC50 is no less than 30000 nM at GPR6 (setting [1]) and 1000 to 30000 nM on GPR3 (setting [2]).

Take `CC(=O)N1CCc2nc(N3CCC(Oc4cccc(F)c4)CC3)c(-c3cnn(C)c3)nc2C1` [Compound 393, 1-{2-[4-(3-fluorophenoxy)piperidin-1-yl]-3-(1-methyl-1H-pyrazol-4-yl)-5H,6H,7H,8H-pyrido[3,4-b]pyrazin-6-yl}ethan-1-one]: the IC50 on GPR6 (setting [1]) and against GPR3 (setting [2]) was 1000 to 30000 nM each time.

With `CC(=O)N1Cc2nc(-c3cnn(C)c3)c(N3CCC(Oc4ccc(F)cc4F)CC3)nc2CC1C` (stereo not shown) [Compound 394, 1-{2-[4-(2,4-difluorophenoxy)piperidin-1-yl]-7-methyl-3-(1-methyl-1H-pyrazol-4-yl)-5H,6H,7H,8H-pyrido[3,4-b]pyrazin-6-yl}ethan-1-one], the IC50 at GPR6 (setting [1]) was 100 to 1000 nM; against GPR3 (setting [2]) it was 1000 to 30000 nM.

Turning to `Cn1cc(-c2nc3cnc(O)cc3nc2N2CCC(Oc3ccc(F)cc3F)CC2)cn1` [Compound 395, 2-(4-(2,4-difluorophenoxy)piperidin-1-yl)-3-(1-methyl-1H-pyrazol-4-yl)pyrido[3,4-b]pyrazin-7-ol], the IC50 against GPR6 (setting [1]) and at GPR3 (setting [2]) was 1000 to 30000 nM throughout.

Consider `CC(=O)N1CCc2nc(N3CC(Oc4ccc(F)cc4F)C3)c(-c3cnn(C)c3)nc2C1` [Compound 398, 1-{2-[3-(2,4-difluorophenoxy)azetidin-1-yl]-3-(1-methyl-1H-pyrazol-4-yl)-5H,6H,7H,8H-pyrido[3,4-b]pyrazin-6-yl}ethan-1-one], for which the IC50 against GPR6 (setting [1]) and at GPR3 (setting [2]) was 1000 to 30000 nM each time.

Take `Cn1cc(-c2nc3cnc(OCCO)cc3nc2N2CCC(Oc3ccc(F)cc3F)CC2)cn1` [Compound 399, 2-({2-[4-(2,4-difluorophenoxy)piperidin-1-yl]-3-(1-methyl-1H-pyrazol-4-yl)pyrido[3,4-b]pyrazin-7-yl}oxy)ethan-1-ol]: the IC50 on GPR6 (setting [1]) and against GPR3 (setting [2]) was 1000 to 30000 nM in each case.

Consider `CCn1cc(-c2nc3c(nc2N2CCC(Oc4cc(Cl)ccc4Cl)CC2)CCN(C(C)=O)C3)cn1` [Compound 400, 1-{2-[4-(2,5-dichlorophenoxy)piperidin-1-yl]-3-(1-ethyl-1H-pyrazol-4-yl)-5H,6H,7H,8H-pyrido[3,4-b]pyrazin-6-yl}ethan-1-one], for which the 50% inhibitory concentration (IC50) against GPR6 (setting [1]) lay in the range of 100 to 1000 nM; on GPR3 (setting [2]) it was 1000 to 30000 nM.

As to `CC(O)C(O)c1cc2nc(N3CCC(Oc4ccc(F)cc4F)CC3)c(-c3cnn(C)c3)nc2cn1` (stereo not shown) [Compound 401, 1-{2-[4-(2,4-difluorophenoxy)piperidin-1-yl]-3-(1-methyl-1H-pyrazol-4-yl)pyrido[3,4-b]pyrazin-7-yl}propane-1,2-diol], the IC50 on GPR6 (setting [1]) is 100 to 1000 nM; on GPR3 (setting [2]), 1000 to 30000 nM.

In the case of `Cn1cc(-c2nc3cnc(C(O)CC#N)cc3nc2N2CCC(Oc3ccc(F)cc3F)CC2)cn1` (stereo not shown) [Compound 402, 3-(2-(4-(2,4-difluorophenoxy)piperidin-1-yl)-3-(1-methyl-1H-pyrazol-4-yl)pyrido[3,4-b]pyrazin-7-yl)-3-hydroxypropanenitrile], the IC50 against GPR6 (setting [1]) and at GPR3 (setting [2]) was 1000 to 30000 nM in each case.
